Reference: article PMC10747602, “Dose Response, Dosimetric, and Metabolic Evaluations of Replacement PFAS Perfluoro-(2,5,8-trimethyl-3,6,9-trioxadodecanoic) Acid (HFPO-TeA)” (Toxics, 2023)
Where two headings read alike, the source gives them in different places.

Experiment: Liver HFPO-TeA dosimetry
Assay type: in vivo, Sprague Dawley rats
Details: for 5D Liver Conc.: 5 days of exposure, mean ± SD n=4; for concentration at 5 days: Sprague Dawley, rat, liver, oral, wet weight, individual rats, read-out: Liver Conc.
Experimental: Whole blood was collected from the retro-orbital plexus under isoflurane anesthesia 2 h following the first dose and by cardiac puncture 24 h after the last dosage. Blood was stored in anticoagulant potassium ethylenediaminetetraacetic acid (K3EDTA)-coated vacutainers, and then processed to isolate plasma via centrifugation. Animals were euthanized via carbon dioxide asphyxiation and subsequent exsanguination. Liver was collected, weighed, cubed, and divided into three aliquots. One aliquot of tissue was flash-frozen in liquid nitrogen and stored at −80 °C for analytical chemistry analyses. The remaining two aliquots were placed in RNALater and frozen for use in the companion transcriptomic study. Liver and plasma samples were received at the U.S. EPA Center for Computational Toxicology and Exposure, Advanced Analytical Chemistry Methods Branch in Research Triangle Park, North Carolina, USA, and stored at −80 °C prior to extraction.
Information on the chemicals and materials used in the liver plasma HFPO-TeA dosimetry work can be found in Supplementary Text S6 and Table S3. Liver sample preparation was modified from Conley et al.’s work and detailed in Supplementary Text S6 [49]. Briefly, samples were spiked with the internal standard PFHxDA then homogenized in 200 µL of ACN containing 0.1% formic acid. The sample was centrifuged, and the supernatant was transferred. This process was repeated twice more, then stored at −20 °C prior to analysis.
Liver samples were analyzed using the same analytical assessment procedure as the plasma dosimetry samples. Matrix blanks were analyzed with each sample set. HFPO-TeA was not detected in the blanks above the limit of quantitation (LOQ) of 1.58 µM. Statistical analysis is described in Supplementary Text S3, normalization calculations are described in Supplementary Text S5 [47], and the liver-to-plasma partitioning calculation is outlined in Supplementary Text S7 [32, 50, 51].
All in vivo results values are reported as mean ± one standard deviation (SD). Statistical evaluation of in vivo data was conducted using a two-way analysis of variance (ANOVA) and Dunnett’s Test, both at α = 0.05 significance level, on GraphPad Prism v9.5.1.
Support ing Text S4: Plasma Dosimetry Chemicals, Materials, and Analysis Sprague Dawley rodent plasma (pooled, mixed sex) collected with ethylenediaminetetraacetic acid (EDTA) and sterile filtered (0.2 µm) was obtained from BioIVT (Westbury, NY, USA) and stored at -80 °C until use as the control matrix for generating calibration curves and as the matrix blank during plasma sample analysis. The HFPO-TeA (98.97% pure) used for calibration curve preparation was obtained from Oakwood Products Inc. (West Columbia, South Carolina, USA). Unlabeled perfluorohexadecanoic acid (CASRN 67905-19-5 | DTXSID1070800 | PFHxDA; ≥ 98% pure) was obtained from Cambridge Isotope Laboratories (Tewksbury, MA, USA) to serve as the internal standard since a labeled HFPO-TeA standard was not commercially available. […]
Samples were quantitated against matrix-matched calibration curves containing a minimum of 5 points spanning the range 20 – 80,280 ng/mL plasma. Calibrants were prepared by spiking commercial rat plasma (BioIVT) with HFPO-TeA and PFHxDA and then extracted in the same manner as study samples.
Support ing Text S5: Normalization of Dosimetry Data Calculations
Percent dose of HFPO-TeA in plasma was calculated using the observed plasma concentrations and the average plasma volume for Sprague Dawley rats. The density of plasma was then used to convert from mL plasma to grams plasma for ease of comparison to the liver percent dose data. Average percent dose of HFPO-TeA in liver was calculated using the observed liver concentrations and liver weights. These calculations allow for a comparison of the potential saturation of available proteins in […]
Support ing Text S6: Liver Dosimetry Chemicals, Materials, and Analysis […]

SMILES: O=C(O)C(F)(OC(F)(F)C(F)(OC(F)(F)C(F)(OC(F)(F)C(F)(F)C(F)(F)F)C(F)(F)F)C(F)(F)F)C(F)(F)F (stereo not shown) [HFPO-TeA, perfluoro-(2,5,8-trimethyl-3,6,9-trioxadodecanoic) acid]
- 5D Liver Conc. (0.9 mg/kg/day, F): 14.0 ± 4.3 µM
- 5D Liver Conc. (2.3 mg/kg/day, F): 16.5 ± 12.6 µM
- 5D Liver Conc. (2.3 mg/kg/day, M): 10.3 ± 7.5 µM
- 5D Liver Conc. (6.3 mg/kg/day, F): 86.8 ± 31.7 µM
- 5D Liver Conc. (6.3 mg/kg/day, M): 82.7 ± 10.5 µM
- 5D Liver Conc. (17 mg/kg/day, F): 250 ± 39 µM
- 5D Liver Conc. (17 mg/kg/day, M): 210 ± 85 µM
- concentration at 5 days (female, 0.9 mg/kg/day, F): 9240 ng/g
- concentration at 5 days (female, 17 mg/kg/day, F): 174000 ng/g
- concentration at 5 days (male, 6.3 mg/kg/day, M): 61600 ng/g
